According to patent US4255183A, “Substituted phenyl urea and herbicides for use in paddy field” (Hokko Chemical Industry Co., Ltd., priority 1977, dated 1981):
Read-outs that look alike come from different tables or passages of the source.

Key:
paddy rice [1] = experiment: Test Example 1: pot test on selectivity, inhibition of paddy rice; format: in vivo; details: for inhibition at 750 g/ha / inhibition at 1500 g/ha / inhibition at 3000 g/ha / inhibition at 6000 g/ha / inhibition at 9000 g/ha: Oryza sativa, 720 h, dry weight 30 days after treatment; for inhibition at 750 g/ha: 75 g/10 are; for inhibition at 1500 g/ha: 150 g/10 are; for inhibition at 3000 g/ha: 300 g/10 are; for inhibition at 6000 g/ha: 600 g/10 are; for inhibition at 9000 g/ha: 900 g/10 are
How it was run: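 Alluvial paddy soil in pots sown with Echinochloa crus-galli var. oryzicola (50 seeds) and paddy rice (30 seeds), submerged about 1 cm. Dry weights taken 30 days after chemical treatment; inhibition rate calculated relative to untreated area.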

paddy rice [2] = experiment: Test Example 3: field test in transplanted paddy field, paddy rice; format: in vivo, paddy rice (Asahi species); details: Oryza sativa; 300 g/10 are, granule, applied 25 days after transplantation, examined 60 days after transplantation
Procedure: (§1) In a Wagner pot of 1/500 are, paddy field soil (alluvial soil) was placed and 50 seeds of Echinochloa crus-galli var. oryzicola and 30 seeds of paddy rice were seeded in the surface layer of said soil and the submerging depth was kept at about 1 cm. When Echinochloa crus-galli var. oryzicola reached at the one leaf stage and 5-leaf stage, the emulsion of a predetermined concentration, prepared according to Example 4 was added dropwise. After 30 days from the treatment with the chemical, dry weights of Echinochloa crus-galli var. oryzicola and paddy rice were measured and the inhibition rate was calculated with reference to untreated area. [formula]
(§2) In a 10 m^2 paddy field, young seedlings of paddy rice (Asahi species) at the 2,5-leaf stage were transplanted 30 days after the puddling the submerging at the depth of 3-5 cm. 25 Days after the transplantation, when Echinochloa crus-galli var. oryzicola reached 4-leaf stage, a predetermined dose of the granule prepared according to Example 1 was applied. Test results were examined 60 days after the transplantation of paddy rice in the similar manner as in Test Example 1.
(§3) Comparative chemicals used were all those commercially available and in the case of the comparative chemical 2, CNP was applied 3 days after the transplantation of paddy rice and after 25 days a mixture of Benthiocarb and Simetryne was applied.

Acute oral toxicity = details: in vivo, SD-strain rat
Procedure: Acute oral toxicity LD50 value of the compound of the invention measured on SD-strain rat is more than 2,000 mg/Kg for any of the trans-form, cis-form and a mixture thereof in equal amount and further acute fish toxicity TLm value (as defined by Official Standard issued from Ministry of Agriculture & Forestry) measured on young carp is more than 20 ppm for any of the above compounds.

Bulrush = experiment: Test Example 5: Wagner pot test, herbicidal effect on Bulrush; format: in vivo
How it was run: (§4)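 Paddy soil in 1/7500 are Wagner pots flooded about 2 cm, transplanted rice (2–3-leaf stage), sown bulrush, naturally emerging other weeds. Emulsion applied dropwise to water surface at predetermined concentration when weeds reached defined leaf age. Herbicidal effect and rice injury scored by index 20 days after application, three replicates.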

[3] = tested on: Echinochloa crus-galli var. oryzicola; experiment: Test Example 3: field test in transplanted paddy field, Echinochloa crus-galli var. oryzicola; format: in vivo; details: Echinochloa crus-galli, 1440 h; 300 g/10 are, granule, applied at 4-leaf stage, examined 60 days after transplantation; read-out: Inhibition (%) of E. crus-galli var. oryzicola
Procedure: as §1, §2, §3

paddy rice [4] = experiment: whole plant or invertebrate; format: in vivo, paddy rice (Asahi species); details: Oryza sativa, 720 h, granule, 30 days; for inhibition at 1000 g/ha: 100 g/10 are; for inhibition at 3000 g/ha: 300 g/10 are; for inhibition at 9000 g/ha: 900 g/10 are
How it was run: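 Barnyardgrass seeded in flooded alluvial paddy soil (~3 cm water) in concrete pots, with 2.5-leaf Asahi rice transplanted before weed emergence. Granules applied at weed 1-leaf or 5-leaf stage. Dry weights measured 30 days after treatment; inhibition rate calculated versus untreated area.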

paddy rice [5] = experiment: Test Example 4: field test in submerged directly seeded paddy field, paddy rice; format: in vivo, paddy rice (Asahi species); details: Oryza sativa, 504 h; 300 g/10 are, emulsion, 2- to 3-leaf stage, 21 days after application
Procedure: as §1
In a 10 m^2 paddy field, 30 g of Echinochloa crus-galli var. oryzicola seeds were seeded at the time of puddling and the depth of submerging was kept at 3-5 cm. 3 Days after the puddling, 50 g of paddy rice at the emergence stage (Asahi species) were seeded. When Echinochloa crus-galli var. oryzicola and paddy rice reached a 2- to 3-leaf stage, a predetermined dose of the emulsion prepared according to Example 4 was applied uniformly by means of a manual spraying machine. Test results were examined 21 days after the application of the chemicals in the similar manner as in Test Example 1.
The comparative chemical 1 used was that commercially available and the comparative chemical 2 used was prepared according to Example 4.

Umbrella plant = experiment: Test Example 5: Wagner pot test, herbicidal effect on umbrella plant; format: in vivo; details: 20 days after application
How it was run: as §4

Dopatrium junceum = experiment: Test Example 5: Wagner pot test, herbicidal effect on Dopatrium junceum; format: in vivo
How it was run: as §4

[6] = 1-leaf stage, read-out: Inhibition (%) by treatment at 1-leaf stage, paddy rice
[7] = 5-leaf stage, read-out: Inhibition (%) by treatment at 5-leaf stage, paddy rice
[8] = 300 g/10a, leaf age 3, 20 days after application
[9] = 600 g/10a, leaf age 3, 20 days after application
[10] = rice at 3.5 leaves stage, read-out: Inhibition (%) by treatment at 1-leaf stage of E. crus-galli var. oryzicola, paddy rice
[11] = rice at 7 leaves stage, read-out: Inhibition (%) by treatment at 5-leaf stage of E. crus-galli var. oryzicola, paddy rice

Structure (SMILES): C/C=C/COc1ccc(NC(=O)N(C)C)cc1 [trans-form, 3-(4-trans-crotyloxyphenyl)-1,1-dimethyl urea]
- inhibition at 750 g/ha (paddy rice [1]; [6]): 0%
- inhibition at 750 g/ha (paddy rice [1]; [7]): 0%
- inhibition at 1500 g/ha (paddy rice [1]; [6]): 0%
- inhibition at 1500 g/ha (paddy rice [1]; [7]): 0%
- inhibition at 3000 g/ha (paddy rice [1]; [6]): 0%
- inhibition at 3000 g/ha (paddy rice [1]; [7]): 0%
- inhibition at 6000 g/ha (paddy rice [1]; [6]): 0%
- inhibition at 6000 g/ha (paddy rice [1]; [7]): 0%
- inhibition at 9000 g/ha (paddy rice [1]; [6]): 2%
- inhibition at 9000 g/ha (paddy rice [1]; [7]): 0%
- selectivity to paddy rice (paddy rice [1]; trans-form, cis-form and mixtures compared): equivalent
- inhibition at 3000 g/ha (paddy rice [2]): 0%
- LD50 (Acute oral toxicity): > 2000 mg/kg
- Weed kill degree, Bulrush (Bulrush; [8]): 5 (100)
- Weed kill degree, Bulrush (Bulrush; 300 g/10a, leaf age 3-5, 20 days after application): 5 (100)
- Weed kill degree, Bulrush (Bulrush; [9]): 5 (100)
- Weed kill degree, Bulrush (Bulrush; 600 g/10a, leaf age 3-5, 20 days after application): 5 (100)
- inhibition at 3000 g/ha [3]: 100%
- inhibition at 1000 g/ha (paddy rice [4]; [10]): 0%
- inhibition at 1000 g/ha (paddy rice [4]; [11]): 0%
- inhibition at 3000 g/ha (paddy rice [4]; [10]): 0%
- inhibition at 3000 g/ha (paddy rice [4]; [11]): 0%
- inhibition at 9000 g/ha (paddy rice [4]; [10]): 0%
- inhibition at 9000 g/ha (paddy rice [4]; [11]): 0%
- inhibition at 3000 g/ha (paddy rice [5]): 0%
- Weed kill degree, Umbrella plant (Umbrella plant; 300 g/10a, leaf age 2 (first group of columns)): 5 (100)
- Weed kill degree, Umbrella plant (Umbrella plant; 300 g/10a, leaf age 2 (second group of columns)): 5 (100)
- Weed kill degree, Umbrella plant (Umbrella plant; 600 g/10a, leaf age 2 (first group of columns)): 5 (100)
- Weed kill degree, Umbrella plant (Umbrella plant; 600 g/10a, leaf age 2 (second group of columns)): 5 (100)
- Weed kill degree, Dopatrium junceum (Dopatrium junceum; 300 g/10a, leaf age 2, 20 days after application): 5 (100)
- Weed kill degree, Dopatrium junceum (Dopatrium junceum; [8]): 5 (100)
- Weed kill degree, Dopatrium junceum (Dopatrium junceum; 600 g/10a, leaf age 2, 20 days after application): 5 (100)
- Weed kill degree, Dopatrium junceum (Dopatrium junceum; [9]): 5 (100)
